According to article PMC3237054 (2011):

Assays:
[1] = target: T1, LPA3 (hLPA3) (Homo sapiens, UniProt Q9UBY5); format: biochemical; conditions: read-out: Ki; cho cell membranes
T1 sequence (Q9UBY5 1-353): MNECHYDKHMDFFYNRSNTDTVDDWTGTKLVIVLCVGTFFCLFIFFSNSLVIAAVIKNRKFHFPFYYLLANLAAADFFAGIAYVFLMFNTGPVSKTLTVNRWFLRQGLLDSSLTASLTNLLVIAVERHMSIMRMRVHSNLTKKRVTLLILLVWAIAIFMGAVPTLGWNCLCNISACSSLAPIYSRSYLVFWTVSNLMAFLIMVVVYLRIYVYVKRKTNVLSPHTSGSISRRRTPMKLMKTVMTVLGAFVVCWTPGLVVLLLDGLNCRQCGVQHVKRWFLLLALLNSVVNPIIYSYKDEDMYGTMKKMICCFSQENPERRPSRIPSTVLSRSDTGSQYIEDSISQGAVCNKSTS

[2] = target: LPA1 (hLPA1) (Homo sapiens, UniProt Q92633); format: biochemical; conditions: read-out: Ki; cell membranes
Sequence of LPA1 (hLPA1) (Q92633 whole entry): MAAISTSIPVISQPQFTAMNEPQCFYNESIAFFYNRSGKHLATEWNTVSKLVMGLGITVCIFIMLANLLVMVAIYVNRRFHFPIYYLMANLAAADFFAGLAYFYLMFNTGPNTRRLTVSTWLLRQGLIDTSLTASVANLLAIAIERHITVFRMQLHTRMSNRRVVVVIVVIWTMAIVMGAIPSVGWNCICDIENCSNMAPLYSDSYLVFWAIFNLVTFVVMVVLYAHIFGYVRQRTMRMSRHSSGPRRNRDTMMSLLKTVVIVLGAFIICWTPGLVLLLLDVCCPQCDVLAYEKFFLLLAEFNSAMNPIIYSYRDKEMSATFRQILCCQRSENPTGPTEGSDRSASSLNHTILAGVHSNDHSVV

VPC51299 [6.1]
Kb [1]: 0.512 µM | Kb [2]: 0.143 µM
